Five compounds from US20260274894A1, “CYCLIC POLYPEPTIDE COMPOUND AND USE THEREOF” (BIVISION PHARMACEUTICALS, INC., priority 2023, published 2026) can be followed below.

The nature of data set [1]: Animal body weight after injection of ^177Lu-labeled compound. The conditions noted are these: Day 2. As to the method: 6- to 8-week-old (Balb/c Nude) mice were subcutaneously inoculated on the right scapula with 2×10^6 cells of HT1080 2 # (50% o Matrigel, Corning). When the tumors grew to the size as required by the assay, the animals were randomly assigned to 13 experimental groups based on tumor volume, with 5 animals per group. The body weight and tumor size were measured. On the day of grouping, administration was initiated for the control group (normal saline) and groups 1-12. General health and appearance were observed daily after the experiment began. Body weight and tumor size were measured prior to each sample collection time point. Any abnormal observations found during the entire study period were required to be recorded in the raw data.

For data set [2], the target named is dipeptidyl peptidase IV (DPPIV) (Homo sapiens, UniProt P27487). Kind of data set: Protease inhibition (selectivity) assay, DPPIV, Gly-Pro-AMC substrate. The following applies: recombinant human DPPIV 0.1 nM; read-out: pIC50 (DPPIV) (converted). It is filed as biochemical. As to the method:
(§1) The specificity of the synthesized compounds for recombinant human dipeptidyl peptidase IV (DPPIV), fibroblast activation protein (FAP), or prolyl oligopeptidase (PREP) was expressed by their half-maximal inhibitory concentration (IC50) against the proteases. […] No. I-1145.0050BA) in DMSO; DPPIV: 100 mM Gly-Pro-AMC (VWR, Cat. No. 100042-646) in DMSO), and the stock solution of the substrate was subsequently diluted 20-fold using the corresponding buffer described above. • 4) The enzyme was diluted into an appropriate assay buffer. […] Column 1 (A, B, C) was prepared using 200 μL of an appropriate analysis buffer as a control. Column 1 (D, E, F, G, H) was prepared with 20 μL of an appropriate assay buffer and 180 μL of the enzyme as the inhibitor-free control. • 5) Where appropriate, 20 μL of the test compound was added from the dilution plate prepared in step 2 to columns 2-10 of the assay plate. Each sample should be tested in triplicate. It was incubated at room temperature for 10 minutes, with the plate being shaken for the first two minutes. • 6) 10 μL of the 20× substrate prepared in step 3 was added to each well and incubated at room temperature for 15 minutes, with the plate being shaken for the first two minutes. • 7) Fluorescence was read at λex:380 and λem:460.

Data set [3] addresses T1, prolyl oligopeptidase (PREP) (Homo sapiens, UniProt P48147).
T1 sequence (P48147 1-710): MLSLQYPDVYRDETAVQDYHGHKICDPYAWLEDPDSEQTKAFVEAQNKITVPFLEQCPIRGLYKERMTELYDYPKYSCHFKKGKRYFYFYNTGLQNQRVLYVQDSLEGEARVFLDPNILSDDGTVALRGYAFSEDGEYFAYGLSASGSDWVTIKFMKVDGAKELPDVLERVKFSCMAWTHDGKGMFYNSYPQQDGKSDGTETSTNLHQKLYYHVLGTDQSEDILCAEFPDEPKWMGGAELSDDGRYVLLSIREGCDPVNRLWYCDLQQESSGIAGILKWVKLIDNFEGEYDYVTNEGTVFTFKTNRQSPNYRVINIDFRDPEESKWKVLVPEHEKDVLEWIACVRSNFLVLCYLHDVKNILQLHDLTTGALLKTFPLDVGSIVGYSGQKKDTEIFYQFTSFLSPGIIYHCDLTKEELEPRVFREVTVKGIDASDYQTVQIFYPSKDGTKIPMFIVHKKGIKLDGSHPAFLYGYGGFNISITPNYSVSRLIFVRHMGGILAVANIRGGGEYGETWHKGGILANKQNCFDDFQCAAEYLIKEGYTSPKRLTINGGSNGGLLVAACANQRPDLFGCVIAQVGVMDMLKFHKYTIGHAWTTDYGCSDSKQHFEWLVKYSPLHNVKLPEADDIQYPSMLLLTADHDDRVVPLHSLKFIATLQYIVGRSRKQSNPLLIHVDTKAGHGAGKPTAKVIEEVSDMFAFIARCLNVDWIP
Kind of data set: Protease inhibition (selectivity) assay, PREP, Z-Gly-Pro-AMC substrate. The following applies: recombinant human PREP 0.6 nM. In kind it is biochemical. As to the method:
as §1

Data set [4] has as its target T2, fibroblast activation protein (FAP) (Homo sapiens, UniProt Q12884).
T2 sequence (Q12884 1-760): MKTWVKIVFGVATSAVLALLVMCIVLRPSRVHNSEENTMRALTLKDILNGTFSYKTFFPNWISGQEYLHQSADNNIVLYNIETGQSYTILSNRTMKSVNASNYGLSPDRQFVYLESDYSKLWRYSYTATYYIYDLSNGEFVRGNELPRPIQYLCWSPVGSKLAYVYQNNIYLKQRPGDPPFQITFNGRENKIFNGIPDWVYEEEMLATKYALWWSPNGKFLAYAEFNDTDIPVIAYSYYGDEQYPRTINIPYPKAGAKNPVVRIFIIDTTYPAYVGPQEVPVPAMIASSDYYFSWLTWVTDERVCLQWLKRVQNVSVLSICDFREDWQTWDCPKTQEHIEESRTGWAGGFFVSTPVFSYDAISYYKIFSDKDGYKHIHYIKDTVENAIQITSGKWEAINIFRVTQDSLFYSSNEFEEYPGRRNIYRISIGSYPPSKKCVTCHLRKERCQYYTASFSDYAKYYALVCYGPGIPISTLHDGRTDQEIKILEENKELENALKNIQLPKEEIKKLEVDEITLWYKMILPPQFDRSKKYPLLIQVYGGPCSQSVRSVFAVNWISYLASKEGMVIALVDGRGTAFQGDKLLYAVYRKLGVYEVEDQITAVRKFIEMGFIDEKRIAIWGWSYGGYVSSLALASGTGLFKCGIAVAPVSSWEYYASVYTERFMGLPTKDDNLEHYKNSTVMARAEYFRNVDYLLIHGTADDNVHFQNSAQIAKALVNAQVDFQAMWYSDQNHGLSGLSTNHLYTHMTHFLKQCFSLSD
Description: Protease inhibition (selectivity) assay, FAP, Z-Gly-Pro-AMC substrate. In kind it is biochemical. The following applies: recombinant human FAP 1.2 nM. As to the method: as §1

For another data set, the target named is T3, FAP protein (Homo sapiens, UniProt Q12884).
T3 construct: purchased Sinobiological
T3 sequence (Q12884 1-760): T2 sequence (Q12884 1-760)
Kind of data set: Biacore test of compound affinity to FAP protein. The conditions noted are these: Biacore 8K, SA chip, 15° C., 1:1 binding model; read-out: pKD (FAP) (converted). In short, it runs like this:
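FAP captured on an SA chip; compounds run as analyte in single-cycle kinetics at 15° C (90 s contact, 1800 s dissociation, 30 μL/min), reference-subtracted (2-1). Sensorgrams fitted to a 1:1 binding model to give KD, reported as pKD = −log KD.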

Numbered stars: 1 amine (or outer) side, 2 acyl side, 3 side chain; on linkers, the order of the positions; unused ones are H or OH. Bridge positions count the residues as written; N and C are the ends. Square brackets hold non-standard residues; d marks the D form. Side chains are listed from the residue outwards. Peptide text beside a SMILES is read from it. * marks the point of attachment. ξ: configuration not given here. Acetyl(4-DOTA-piperazinyl) = O=C(O)CN1CCN(CC(=O)O)CCN(CC(=O)N2CCN(CC(=O)*)CC2)CCN(CC(=O)O)CC1; X2 = O=C(O)CN1CCN(CC(=O)O)CCN(CC(=O)N2CCN(CCCN*)CC2)CCN(CC(=O)O)CC1; DOTA = O=C(O)CN1CCN(CC(=O)O)CCN(CC(=O)*)CCN(CC(=O)O)CC1; Azetidine3carboxylic = O=C(C1CN([*:1])C1)[*:2]; mXylylene = c1cc(C[*:1])cc(C[*:2])c1; Cha = N[C@@H](CC1CCCCC1)C(=O)O; Dab = NCC[C@H](N)C(=O)O; Dap = NC[C@H](N)C(=O)O; Aoc = NCCCCCCCC(=O)O; CO = O=C([*:1])[*:2]; ξP = O=C(O)C1CCCN1; ξC = NC(CS)C(=O)O; NHBu = CCCCN* A value given as a limit tells only on which side of the number the result lay.

dipeptidyl peptidase IV (DPPIV), sequence (P27487 whole entry): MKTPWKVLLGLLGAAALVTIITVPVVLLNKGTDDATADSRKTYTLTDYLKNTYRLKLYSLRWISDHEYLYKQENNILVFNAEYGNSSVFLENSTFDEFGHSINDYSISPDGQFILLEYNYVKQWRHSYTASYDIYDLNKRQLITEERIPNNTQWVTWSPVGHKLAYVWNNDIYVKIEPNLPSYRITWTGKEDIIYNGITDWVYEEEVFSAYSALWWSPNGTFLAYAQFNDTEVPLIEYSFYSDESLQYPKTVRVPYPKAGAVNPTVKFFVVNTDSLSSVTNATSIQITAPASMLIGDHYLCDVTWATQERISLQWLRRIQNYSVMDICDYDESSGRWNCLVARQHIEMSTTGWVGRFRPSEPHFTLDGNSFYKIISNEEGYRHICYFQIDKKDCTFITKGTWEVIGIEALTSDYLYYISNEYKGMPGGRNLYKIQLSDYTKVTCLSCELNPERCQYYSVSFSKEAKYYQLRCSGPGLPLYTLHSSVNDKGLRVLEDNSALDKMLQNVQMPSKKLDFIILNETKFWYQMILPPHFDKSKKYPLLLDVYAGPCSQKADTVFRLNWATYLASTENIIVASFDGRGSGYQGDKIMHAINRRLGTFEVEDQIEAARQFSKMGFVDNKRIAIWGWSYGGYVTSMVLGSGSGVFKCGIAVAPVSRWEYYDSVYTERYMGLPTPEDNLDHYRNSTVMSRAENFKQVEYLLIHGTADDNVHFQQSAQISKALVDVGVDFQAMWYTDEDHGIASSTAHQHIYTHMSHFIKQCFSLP

Regarding `CCCCNC(=O)N[C@H]1CSCc2cccc(c2)CSCC(C(=O)N[C@@H](CNC(=O)CN2CCN(C(=O)CN3CCN(CC(=O)O)CCN(CC(=O)O)CCN(CC(=O)O)CC3)CC2)C(=O)O)NC(=O)[C@H](CC2CCCCC2)NC(=O)[C@H](CCC(N)=O)NC(=O)[C@H]([C@@H](C)O)NC(=O)C2CCCN2C(=O)C2CN(C2)C1=O` (some centres unmarked) [^177Lu-JHDC47, metal not drawn] ({NHBu-CO}-C[Azetidine3carboxylic][ξP]TQ[Cha][ξC][Dap](Acetyl(4-DOTA-piperazinyl))-OH; linker 1-7 via mXylylene), in data set [1], the “Animal body weight” value is given as 16.00 ± 0.54 g.

With `CCCCNC(=O)N[C@H]1CSCc2cccc(c2)CSC[C@@H](C(=O)N[C@@H](CCC(=O)NCCCN2CCN(C(=O)CN3CCN(CC(=O)O)CCN(CC(=O)O)CCN(CC(=O)O)CC3)CC2)C(=O)O)NC(=O)[C@H](Cc2ccccc2)NC(=O)[C@H](CCC(N)=O)NC(=O)[C@H]([C@@H](C)O)NC(=O)C2CCCN2C(=O)C2CN(C2)C1=O` (stereo partly drawn) [JHDC48, nBu-urea-[Cys(3MeBn)-hhy39-Pro-Thr-Gln-Phe-Cys]-Glu-(aminopropylpiperazine-DOTA)-OH] ({NHBu-CO}-C[Azetidine3carboxylic][ξP]TQFCE(X2)-OH; linker 1-7 via mXylylene), the IC50 is greater than 1000 nM in data set [2], greater than 1000 nM in data set [3] and less than 10 nM in data set [4]. In addition, the Kd at FAP protein is 10 to 100 nM.

Turning to `CCCCNC(=O)N[C@H]1CSCc2cccc(c2)CSCC(C(=O)N[C@@H](CCNC(=O)CCCCCCCNC(=O)CN2CCN(CC(=O)O)CCN(CC(=O)O)CCN(CC(=O)O)CC2)C(=O)O)NC(=O)[C@H](CC2CCCCC2)NC(=O)[C@H](CCC(N)=O)NC(=O)[C@H]([C@@H](C)O)NC(=O)C2CCCN2C(=O)C2CN(C2)C1=O` (stereo partly drawn) [JHDC53, nBu-urea-[Cys(3MeBn)-hhy39-Pro-Thr-Gln-hhy34-Cys]-DABA-(AOA-DOTA)-OH] ({NHBu-CO}-C[Azetidine3carboxylic][ξP]TQ[Cha][ξC][Dab]([Aoc-DOTA])-OH; linker 1-7 via mXylylene), the IC50 is greater than 1000 nM in data set [2], greater than 1000 nM in data set [3] and less than 10 nM in data set [4]. On FAP protein, the Kd is 10 to 100 nM.

As to `CCCCNC(=O)N[C@H]1CSCc2cccc(c2)CSCC(C(=O)N[C@@H](CCNC(=O)CNC(=O)CN2CCN(CC(=O)O)CCN(CC(=O)O)CCN(CC(=O)O)CC2)C(=O)O)NC(=O)[C@H](CC2CCCCC2)NC(=O)[C@H](CCC(N)=O)NC(=O)[C@H]([C@@H](C)O)NC(=O)[C@@H]2CCCN2C(=O)C2CN(C2)C1=O` (stereo partly drawn) [JHDC56, nBu-urea-[Cys(3MeBn)-hhy39-Pro-Thr-Gln-hhy34-Cys]-DABA-(Gly-DOTA)-OH], the figures for the IC50 in data set [2], in data set [3] and in data set [4] were greater than 1000 nM, greater than 1000 nM and less than 10 nM, respectively. Moreover, the Kd at FAP protein is less than 10 nM.

As for `CCCCNC(=O)N[C@H]1CSCc2cccc(c2)CSCC(C(=O)N[C@@H](CNC(=O)CN2CCN(C(=O)CN3CCN(CC(=O)O)CCN(CC(=O)O)CCN(CC(=O)O)CC3)CC2)C(=O)O)NC(=O)[C@H](CC2CCCCC2)NC(=O)[C@H](CCC(N)=O)NC(=O)[C@H]([C@@H](C)O)NC(=O)C2CCCN2C(=O)C2CN(C2)C1=O` (stereo partly drawn) [JHDC47, nBu-urea-[Cys(3MeBn)-hhy39-Pro-Thr-Gln-hhy34-Cys]-DAPA-(Ac-piperazine-DOTA)-OH] ({NHBu-CO}-C[Azetidine3carboxylic][ξP]TQ[Cha][ξC][Dap](Acetyl(4-DOTA-piperazinyl))-OH; linker 1-7 via mXylylene), the figures for the IC50 in data set [2], in data set [3] and in data set [4] were greater than 1000 nM, greater than 1000 nM and less than 10 nM, respectively. Further, on FAP protein, the Kd was less than 10 nM.
